From BindingDB's records for doi:10.1016/s0960-894x(00)00051-2 (Astrazeneca, 2000)

Molecular target: T1, Tyrosine-protein kinase JAK3 (Homo sapiens, UniProt P52333)
T1 sequence (P52333 whole entry): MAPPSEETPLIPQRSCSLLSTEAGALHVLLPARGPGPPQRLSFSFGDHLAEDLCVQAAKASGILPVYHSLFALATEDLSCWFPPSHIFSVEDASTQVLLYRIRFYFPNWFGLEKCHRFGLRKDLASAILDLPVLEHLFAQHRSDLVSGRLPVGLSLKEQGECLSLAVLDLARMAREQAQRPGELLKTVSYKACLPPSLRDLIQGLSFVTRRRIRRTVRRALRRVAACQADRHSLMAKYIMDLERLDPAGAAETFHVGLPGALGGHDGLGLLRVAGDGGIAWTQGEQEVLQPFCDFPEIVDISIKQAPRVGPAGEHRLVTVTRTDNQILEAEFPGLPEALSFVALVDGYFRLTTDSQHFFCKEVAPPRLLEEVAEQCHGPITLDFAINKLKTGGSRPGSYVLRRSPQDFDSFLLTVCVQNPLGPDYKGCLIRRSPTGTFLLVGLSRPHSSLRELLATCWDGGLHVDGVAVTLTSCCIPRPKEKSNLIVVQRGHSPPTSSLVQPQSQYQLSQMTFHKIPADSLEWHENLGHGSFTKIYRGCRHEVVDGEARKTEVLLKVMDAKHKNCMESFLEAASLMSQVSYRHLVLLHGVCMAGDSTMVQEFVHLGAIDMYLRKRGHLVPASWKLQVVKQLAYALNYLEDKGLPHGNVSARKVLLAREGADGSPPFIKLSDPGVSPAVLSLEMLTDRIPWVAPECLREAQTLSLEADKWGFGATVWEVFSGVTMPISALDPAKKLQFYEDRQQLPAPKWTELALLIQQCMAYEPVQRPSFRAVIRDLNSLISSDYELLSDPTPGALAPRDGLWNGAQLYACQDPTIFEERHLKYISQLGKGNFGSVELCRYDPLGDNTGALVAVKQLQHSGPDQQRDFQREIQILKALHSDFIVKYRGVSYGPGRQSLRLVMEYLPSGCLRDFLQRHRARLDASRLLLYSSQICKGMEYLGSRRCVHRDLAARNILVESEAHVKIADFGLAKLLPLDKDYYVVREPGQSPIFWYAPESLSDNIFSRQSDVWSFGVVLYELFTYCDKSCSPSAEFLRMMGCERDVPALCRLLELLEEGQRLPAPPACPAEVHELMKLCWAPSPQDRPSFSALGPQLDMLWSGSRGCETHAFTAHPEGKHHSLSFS
Assay: ChEBML_91954
Excerpt: (§1) In vitro inhibition of Janus kinase 3.

IC50 [µM] | SMILES
12.6 | N#C/C(=C\c1ccc(O)c(O)c1)C(=O)NCc1ccccc1
0.63 | CN(C)CCC(=O)c1ccc2ccccc2c1
15.8 | COc1ccc2cc(C(=O)CCN3CCOCC3)ccc2c1
12.6 | O=C(C=Cc1ccccc1Cl)CCN1CCOCC1
501 | C=CC(O)c1ccc2ccccc2c1 (stereo not drawn)
12.6 | CC(=Cc1ccccc1)C(=O)CCN1CCOCC1
2 | O=C(CCN1CCOCC1)c1ccc2ccccc2c1
200 | COc1cc2ccc(C(=O)CCN3CCOCC3)cc2cc1OC
0.794 | O=C(CCN1CCCCCC1)c1ccc2ccccc2c1
3.16 | O=C(CCN1CCOCC1)c1cccc2ccccc12
0.501 | O=C(CCN1CCOCC1)c1ccc2ccc3ccccc3c2c1
0.0794 | C=CC(=O)c1ccc2ccccc2c1 [Thr1 inhibitor, 1]

SMILES | IC50 [µM]
CC(C)N(CCC(=O)c1ccc2ccccc2c1)Cc1ccccc1 | 0.0794

Molecular target: T1, Tyrosine-protein kinase JAK3
Assay: as §1

IC50 [µM] | SMILES
> 1000 | CC(C)(CN1CCOCC1)C(=O)c1ccc2ccccc2c1
> 1000 | O=C(CCCN1CCOCC1)c1ccc2ccccc2c1
> 1000 | O=c1c(CN2CCOCC2)coc2cc3ccccc3cc12
> 1000 | O=C(CCNCc1ccccc1)c1ccc2ccccc2c1
> 1000 | ON=C(CCN1CCOCC1)c1ccc2ccccc2c1
